Experimental data as given in patent US20190382396A1, “SALTS OF BICYCLO[1.1.1]PENTANE INHIBITORS OF DUAL LEUCINE ZIPPER (DLK) KINASE FOR THE TREATMENT OF DISEASE” (Board of Regents, The University of Texas System, priority 2018, published 2019).
≈ marks a conversion by molar mass, not a printed value. Where two headings read alike, the source gives them in different places.

Key:
Type in all cases: physicochemical
[1] = Dynamic vapor sorption (DVS), hygroscopicity
Description: Dynamic vapor sorption (“DVS”) was performed at 25° C., using approx 10-15 mg of sample and N2 gas at a flow rate of 200 mL/min, dm/dt=0.01% min, minimum dm/dt stability duration of 10 min, max equilibration time of 180 min, drying at 0% RH for 120 min, scanning from 0% RH to 90% RH to 0% RH with a step size of 10% RH.
Total cycling time varied, but in all cases was about 200-250 min.

[2] = Solubility of the Example 1 compound in organic solvents; conditions: thermodynamic from solid; for solubility at 2 h: 25 °C, RT; for solubility: 50° C.
Description: Solubility of the Example 1 compound in various organic solvents was determined by the following procedure. […] The mixture was stirred at 800 rpm at 25° C. for 2 hr. If the compound was not dissolved completely by this time, the temperature was then raised to 50° C. and stirring at 800 rpm was continued overnight. If a solid precipitate was present, the solid precipitate was then removed by centrifugation (14,000 RPM, 5 min) and dried under vacuum at 30° C. (Method I). If a solid precipitate was not present, the solvent was removed by evaporation under vacuum at 30° C. (Method II). In either case, the resulting material was evaluated by XRPD.

[3] = Thermogravimetric analysis / DSC weight loss; conditions: <120° C.
Description: Differential scanning calorimetry (“DSC”) was performed with a TA Q2000 instrument, using approx 1 mg of sample in a crimped Al pan, heating from room temperature to 300° C. at a rate of 10° C./min.
Thermogravimetric analysis (“TGA”) was performed with a TA Q5000 instrument, using approx 2-5 mg of sample in an open Pt pan, heating from room temperature to 300° C. at a rate of 10° C./min.

[4] = Stability (50° C., 40° C./75% RH, light; 1 week); conditions: for XRPD change? / purity: bulk, 1 week
Description: The stability of the free base 1 and the selected salts 8, 9, 10, and 11 was evaluated. For each material, aliquots were set up at each of conditions (50° C., 40° C./75% RH, light) at given time points (initial and 1 week). PXRD diffractograms of the hydrogen fumarate salt 11 is shown in FIG. 17, with trace (a) showing the initial salt, trace (b) showing the salt after light treatment, trace (c) showing the salt after storage at 40° C. and 75% relative humidity for 1 week, and (d) showing the salt after storage at 50° C. for 1 week.

[5] = Solubility in physiologically relevant solutions (SGF, FaSSIF, FeSSIF); conditions: 25±0.5° C.; for solubility at 24 h: 25 °C, thermodynamic from solid
Description: Solubility of the free base 1 and the selected salts 8, 9, 10, and 11 in physiologically relevant solutions were examined. For each material, aliquots were added to 2 ml vials containing 500 uL of either SGF, FaSSIF, or FeSSIF, which were then sealed. The mixtures were kept shaking by thermomixer at 700 rpm, 25±0.5° C. for 24 h to facilitate the dissolution and then centrifuged by 96-well plates at 3000 rpm for 2 min. The filter liquors were diluted with diluents (ACN/water, 50/50) and analyzed by HPLC.

[6] = aqueous with cosolvent or surfactant or cyclodextrin, 1/1 (v/v) Acetone/H2O
[7] = aqueous with cosolvent or surfactant or cyclodextrin, 1/1 (v/v) EtOH/H2O
[8] = organic solvent or mixture, ACN
[9] = organic solvent or mixture, EtOH
[10] = organic solvent or mixture, Heptane
[11] = organic solvent or mixture, MTBE
[12] = organic solvent or mixture, Toluene

With `CC(C)c1nc(-c2cnc(N)c(OC(F)(F)F)c2)cn1C12CC(N3CCOCC3)(C1)C2` [Example 1, 5-(2-isopropyl-1-(3-morpholinobicyclo[1.1.1]pentan-1-yl)-1H-imidazol-4-yl)-3-(trifluoromethoxy)pyridin-2-amine] the Hygroscopicity (0-40% RH) ([1]; DVS, 25° C., 0-40% RH) was 0.11%, the Hygroscopicity (0-90% RH) ([1]; DVS, 25° C., 0-90% RH) was 2.44% and the “Hygroscopicity; form change” value ([1]; form change after DVS) was “no change”. The solubility at 2 h [2, 6] was < 50 mg/mL, the solubility at 2 h [2, 7] was < 50 mg/mL and the solubility at 2 h [2, 8] was < 50 mg/mL. For the same compound, the solubility at 2 h ([2]; organic solvent or mixture, Acetone) was > 50 mg/mL, the solubility at 2 h ([2]; organic solvent or mixture, DCM) was > 50 mg/mL and the solubility at 2 h ([2]; organic solvent or mixture, DMF) was > 50 mg/mL. The solubility at 2 h ([2]; organic solvent or mixture, DMSO) was > 50 mg/mL, the solubility at 2 h ([2]; organic solvent or mixture, Dioxane) was > 50 mg/mL and the solubility at 2 h ([2]; organic solvent or mixture, EtOAc) was > 50 mg/mL. For the same compound, the solubility at 2 h [2, 9] was < 50 mg/mL, the solubility at 2 h [2, 10] was < 50 mg/mL and the solubility at 2 h ([2]; organic solvent or mixture, IPA) was > 50 mg/mL. The solubility at 2 h ([2]; organic solvent or mixture, MEK) was > 50 mg/mL, the solubility at 2 h [2, 11] was < 50 mg/mL and the solubility at 2 h ([2]; organic solvent or mixture, MeOH) was > 50 mg/mL. For the same compound, the solubility at 2 h ([2]; organic solvent or mixture, THF) was > 50 mg/mL, the solubility at 2 h [2, 12] was < 50 mg/mL and the solubility [2, 6] was < 50 mg/mL. For the same compound, the solubility [2, 7] was < 50 mg/mL, the solubility [2, 8] was > 50 mg/mL and the solubility [2, 9] was > 50 mg/mL. The solubility [2, 10] was < 50 mg/mL, the solubility [2, 11] was < 50 mg/mL and the solubility [2, 12] was < 50 mg/mL. The solubility at 2 h ([2]; water, H2O) was < 50 mg/mL, the solubility ([2]; water, H2O) was < 50 mg/mL and the “weight loss (TGA, %)” value [3] was 0.29% (<120° C.). The “XRPD change?” value ([4]; 40° C., 75% RH) was “yes”, the purity ([4]; 40° C., 75% RH) was 99.66% and the “XRPD change?” value ([4]; 50° C.) was “yes”. For the same compound, the purity ([4]; 50° C.) was 99.41%, the initial purity ([4]; initial (before storage)) was 99.59% and the “XRPD change?” value ([4]; light) was “yes (1)”. The purity ([4]; light) was 96.61%, the solubility at 24 h ([5]; simulated gastric fluid, SGF, read-out: Solubility SGF Conc) was 4.56 mg/mL (≈ 10.4 mM) and the solubility at 24 h ([5]; FaSSIF, read-out: Solubility FaSSIF Conc) was 0.0713 mg/mL (≈ 0.163 mM). For the same compound, the solubility at 24 h ([5]; FeSSIF, read-out: Solubility FeSSIF Conc) was 0.473 mg/mL (≈ 1.08 mM), the “FaSSIF pH after 24 h” value ([5]; FaSSIF) was 6.48 and the “FeSSIF pH after 24 h” value ([5]; FeSSIF) was 5.00. The “SGF pH after 24 h” value ([5]; SGF) was 3.83.
